Results on 17 compounds are retold here after USRE47689E1, “Compounds for treating spinal muscular atrophy” (PTC Therapeutics, Inc., priority 2011, dated 2019).

The subject of series [1] is SMN2 minigene (full length SMN2 minigene mRNA containing SMN2 exon 7). Briefly: SMN2 minigene mRNA splicing RT-qPCR assay in cultured cells. It is filed as cell-based, human. Particulars: Homo sapiens, HEK293-H, read-out: EC1.5x for production of full length SMN2 mRNA. The essentials:
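Lysates → one-step RT-qPCR, minigene-specific primers (0.4 μM final) + GAPDH multiplex, 40 cycles. FL/GAPDH vs DMSO; EC1.5x, star-binned.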
(In general: Real-time PCR tracks product formation cycle by cycle.)

A further series concerns Smn protein. Description: Smn protein assay in cultured cells (SMN HTRF). It is filed as cell-based, human. The settings on record: 48 hours; for EC1.5x (concentration giving 1.5-fold Smn protein increase): SMA Type 1 patient fibroblast cells (GM03813), 7-point concentration curve, SMN HTRF, concentration producing 1.5 times Smn protein vs DMSO vehicle control, read-out: EC1.5x for Smn protein expression; for maximum fold (Fold) increase of Smn protein: SMA patient fibroblast cells, 7-point concentration data, fold increase relative to vehicle control (SMN HTRF). The essentials: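 Smn in SMA fibroblast lysates, measured by anti-SMN HTRF after 48 h compound exposure; EC1.5x from fold change over vehicle.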
For orientation: TR-FRET usually uses a lanthanide donor and a delayed reading to cut background.

Where [2] appears, read: HEK293H cells stably transfected with SMN2-A minigene, 24 hours, 7-point concentration curve, 1.5-fold relative to vehicle-treated cells.

The structures appear in SMILES notation. Read-outs that look alike come from different tables or passages of the source.

In turn, `Cc1cn2cc(-c3cc4ccc(C5CCN(CCO)CC5)cc4oc3=O)ccc2n1` [Compound 829, 7-[1-(2-hydroxyethyl)piperidin-4-yl]-3-(2-methylimidazo[1,2-a]pyridin-6-yl)-2H-chromen-2-one] registered a melting point of 222 to 226 °C. Moreover, the EC (1.5-fold) in series [1] (setting [2]) was under 0.1 µM. Moreover, in the series with Smn protein, the EC1.5x (concentration giving 1.5-fold Smn protein increase) was under 300 nM and the “maximum fold (Fold) increase of Smn protein” value (shortened to “maximum fold (Fold) increase”) is reported as “***** (fold increase >1.65)”.
`C[C@@H]1CN(c2cc(F)c3cc(-c4cn5cccnc5n4)c(=O)oc3c2)C[C@H](C)N1` [Compound 352, 7-[(3R,5S)-3,5-dimethylpiperazin-1-yl]-5-fluoro-3-(imidazo[1,2-a]pyrimidin-2-yl)-2H-chromen-2-one] displayed a melting point of 290 to 292 °C. Also, the EC (1.5-fold) in series [1] (setting [2]) lay within 0.1 to 0.3 µM. In the series with Smn protein, the “maximum fold (Fold) increase” value is recorded as “* (maximum fold increase of ≤1.2)”.
In turn, `Cc1cn2cc(-c3cc4ccc(N5CCN(C)[C@@H](C)C5)cc4oc3=O)nc2c(C)n1` [Compound 672, 3-(6,8-dimethylimidazo[1,2-a]pyrazin-2-yl)-7-[(3S)-3,4-dimethylpiperazin-1-yl]-2H-chromen-2-one] yielded a melting point of 211 to 215 °C. Also, in series [1] (setting [2]), the EC (1.5-fold) is under 0.1 µM. In addition, in the series with Smn protein, the EC1.5x (concentration giving 1.5-fold Smn protein increase) was under 300 nM; the “maximum fold (Fold) increase” value is “**** (fold increase between >1.5 and ≤1.65)”.
For the compound `Cc1cn2cc(-c3cc4ccc(CCCN(CCO)CCO)cc4oc3=O)nc2c(C)n1` [Compound 885, 7-{3-[bis(2-hydroxyethyl)amino]propyl}-3-(6,8-dimethylimidazo[1,2-a]pyrazin-2-yl)-2H-chromen-2-one], the melting point lay within 158 to 162 °C. Also, the EC (1.5-fold) in series [1] (setting [2]) was in the range of 0.1 to 0.3 µM. Also, in the series on Smn protein, the EC1.5x (concentration giving 1.5-fold Smn protein increase) fell in the range of 300 to 1000 nM and the “maximum fold (Fold) increase” value is given as “***** (fold increase >1.65)”.
For `Cc1cn2cc(-c3cc4ccc(CCCN5CCNCC5)cc4oc3=O)nc2c(C)n1` [Compound 859, 3-(6,8-dimethylimidazo[1,2-a]pyrazin-2-yl)-7-[3-(piperazin-1-yl)propyl]-2H-chromen-2-one], the melting point lay in the range of 145 to 153 °C. For the same compound, the EC (1.5-fold) in series [1] (setting [2]) is 0.1 to 0.3 µM. In addition, in the series on Smn protein, the EC1.5x (concentration giving 1.5-fold Smn protein increase) was 300 to 1000 nM; the “maximum fold (Fold) increase” value is “**** (fold increase between >1.5 and ≤1.65)”.
`CN1CCC(N(C)c2ccc3cc(-c4cn5cccnc5n4)c(=O)oc3c2)C1` (centres unmarked) [Compound 181, 3-(imidazo[1,2-a]pyrimidin-2-yl)-7-[methyl(1-methylpyrrolidin-3-yl)amino]-2H-chromen-2-one]: the melting point was in the range of 215 to 217 °C. Moreover, the EC (1.5-fold) in series [1] (setting [2]) was under 0.1 µM. In the series with Smn protein, the “maximum fold (Fold) increase” value is “** (fold increase between >1.2 and ≤1.35)”.
Take `COc1cccn2cc(-c3cc4ccc(N5CCNCC5)cc4oc3=O)nc12` [Compound 402, 3-(8-methoxyimidazo[1,2-a]pyridin-2-yl)-7-(piperazin-1-yl)-2H-chromen-2-one]: the melting point lay in the range of 236 to 240 °C. The EC (1.5-fold) in series [1] (setting [2]) is 3 to 30 µM. Besides, the “maximum fold (Fold) increase” value in the series with Smn protein is on record as “* (maximum fold increase of ≤1.2)”.
As for `Cc1nc(C)c2cc(-c3cc4ccc(N5CCNCC5)cc4oc3=O)sc2n1` [Cpd 705, 3-(2,4-dimethylthieno[2,3-d]pyrimidin-6-yl)-7-(piperazin-1-yl)-2H-chromen-2-one], the melting point was 275 °C (dec.). In addition, the EC (1.5-fold) in series [1] (setting [2]) is 0.1 to 0.3 µM. Moreover, the “maximum fold (Fold) increase” value in the series with Smn protein was “*** (fold increase between >1.35 and ≤1.5)”.
Consider `Cc1ccn2cc(-c3cc4ccc(N[C@@H]5CCNC5)cc4oc3=O)nc2c1` [Compound 496, 3-(7-methylimidazo[1,2-a]pyridin-2-yl)-7-[(3R)-pyrrolidin-3-ylamino]-2H-chromen-2-one], for which the melting point is 244 to 254 °C. Also, in series [1] (setting [2]), the EC (1.5-fold) lay in the range of 0.3 to 1 µM. In the series with Smn protein, the “maximum fold (Fold) increase” value is listed as “* (maximum fold increase of ≤1.2)”.
The compound `COc1cccc(-c2cc3c(F)cc(N4CCNCC4)cc3oc2=O)n1` [Compound 468, 5-fluoro-3-(6-methoxypyridin-2-yl)-7-(piperazin-1-yl)-2H-chromen-2-one] gave a melting point of 231 to 236 °C. Besides, the EC (1.5-fold) in series [1] (setting [2]) is 0.3 to 1 µM. Moreover, in the series on Smn protein, the “maximum fold (Fold) increase” value was “** (fold increase between >1.2 and ≤1.35)”.
The compound `CN1CCN(c2ccc3cc(-c4cn5cccc(C6CC6)c5n4)c(=O)oc3c2)CC1` [Compound 244, 3-(8-cyclopropylimidazo[1,2-a]pyridin-2-yl)-7-(4-methylpiperazin-1-yl)-2H-chromen-2-one] had a melting point of 198 to 202 °C. For the same compound, the EC (1.5-fold) in series [1] (setting [2]) is 0.3 to 1 µM. Also, the “maximum fold (Fold) increase” value in the series on Smn protein is recorded as “* (maximum fold increase of ≤1.2)”.
`Cc1cn2cc(-c3cc4ccc(N[C@@H]5C[C@H]6CCC[C@@H](C5)N6C)cc4oc3=O)nc2c(C)n1` [Compound 702, 3-(6,8-dimethylimidazo[1,2-a]pyrazin-2-yl)-7-{[(3-exo)-9-methyl-9-azabicyclo[3.3.1]non-3-yl]amino}-2H-chromen-2-one]: the melting point was in the range of 279 to 287 °C. The EC (1.5-fold) in series [1] (24 h) lay in the range of 1 to 3 µM. Further, in the series with Smn protein, the “maximum fold (Fold) increase” value is given as “* (maximum fold increase of ≤1.2)”.
As to `Cc1nccn2cc(-c3cc4ccc(N5CCCN(C)CC5)cc4oc3=O)cc12` [Compound 556, 7-(4-methyl-1,4-diazepan-1-yl)-3-(1-methylpyrrolo[1,2-a]pyrazin-7-yl)-2H-chromen-2-one], the melting point was in the range of 125 to 128 °C. The EC (1.5-fold) in series [1] (setting [2]) was in the range of 0.1 to 0.3 µM. Further, in the series on Smn protein, the EC1.5x (concentration giving 1.5-fold Smn protein increase) was in the range of 300 to 1000 nM; the “maximum fold (Fold) increase” value was “*** (fold increase between >1.35 and ≤1.5)”.
In turn, `C[C@@H]1CN(c2ccc3cc(-c4cn5cccc(Cl)c5n4)c(=O)oc3c2)CCN1` [Compound 183, 3-(8-chloroimidazo[1,2-a]pyridin-2-yl)-7-[(3R)-3-methylpiperazin-1-yl]-2H-chromen-2-one] yielded a melting point of 215 to 218 °C. Further, the EC (1.5-fold) in series [1] (setting [2]) was in the range of 0.3 to 1 µM. Besides, the “maximum fold (Fold) increase” value in the series on Smn protein is “** (fold increase between >1.2 and ≤1.35)”.
`Cc1ccc(Nc2cc3ccc(N4CCNCC4)cc3oc2=O)nc1` [Compound 63, 3-[(5-methylpyridin-2-yl)amino]-7-(piperazin-1-yl)-2H-chromen-2-one] registered a melting point of 225 to 228 °C. Besides, in series [1] (setting [2]), the EC (1.5-fold) was 1 to 3 µM. The “maximum fold (Fold) increase” value in the series with Smn protein was “** (fold increase between >1.2 and ≤1.35)”.
`CC(=O)O.Cc1cn2cc(-c3cc4ccc(N5CCN(C)[C@H](C)C5)cc4oc3=O)nc2c(O)n1` [Compound 760, 7-[(3R)-3,4-dimethylpiperazin-1-yl]-3-(8-hydroxy-6-methylimidazo[1,2-a]pyrazin-2-yl)-2H-chromen-2-one acetate] showed a melting point of 304 to 306 °C. For the same compound, the EC (1.5-fold) in series [1] (setting [2]) was in the range of 0.1 to 0.3 µM. Moreover, in the series on Smn protein, the “maximum fold (Fold) increase” value was “*** (fold increase between >1.35 and ≤1.5)”.
`COc1cc(-c2cc3ccc(N4CCNCC4)cc3oc2=O)ccc1C` [Compound 574, 3-(3-methoxy-4-methylphenyl)-7-(piperazin-1-yl)-2H-chromen-2-one] yielded a melting point of 170 to 174 °C. The EC (1.5-fold) in series [1] (setting [2]) fell in the range of 1 to 3 µM. In addition, the “maximum fold (Fold) increase” value in the series with Smn protein is “* (maximum fold increase of ≤1.2)”.

Broadly, the melting point is the temperature of the solid-liquid transition.
